{"source": "patent US12281080B2", "about": "“Quinoline-based compounds and methods of inhibiting CDK8/19” (University of South Carolina, priority 2018, dated 2025)", "key": {"[1]": {"target": "ABL1(Q252H)-phosphorylated (Homo sapiens (Human), UniProt P00519, Q252H)", "assay": "KINOMEscan scanMAX", "type": "binding", "conditions": "2000 nM; read-out: Percent Control"}, "[2]": {"target": "ABL1(T315I)-phosphorylated (Homo sapiens (Human), UniProt P00519, T315I)", "assay": "KINOMEscan scanMAX", "type": "binding", "conditions": "2000 nM; read-out: Percent Control"}, "[3]": {"target": "ABL1(Y253F)-phosphorylated (Homo sapiens (Human), UniProt P00519, Y253F)", "assay": "KINOMEscan scanMAX", "type": "binding", "conditions": "2000 nM; read-out: Percent Control"}, "ANKK1": {"target": "ANKK1 (Homo sapiens (Human), UniProt Q8NFD2)", "assay": "KINOMEscan scanMAX", "type": "binding", "conditions": "2000 nM; read-out: Percent Control"}, "CDK4-cyclinD3": {"target": "CDK4-cyclinD3 (Homo sapiens (Human), UniProt P11802)", "assay": "KINOMEscan scanMAX", "type": "binding", "conditions": "2000 nM; read-out: Percent Control"}, "CLK3": {"target": "CLK3 (Homo sapiens (Human), UniProt P49761)", "assay": "KINOMEscan scanMAX", "type": "binding", "conditions": "2000 nM; read-out: Percent Control"}, "CSNK2A1": {"target": "CSNK2A1 (Homo sapiens (Human), UniProt P68400)", "sequence (P68400 whole entry)": "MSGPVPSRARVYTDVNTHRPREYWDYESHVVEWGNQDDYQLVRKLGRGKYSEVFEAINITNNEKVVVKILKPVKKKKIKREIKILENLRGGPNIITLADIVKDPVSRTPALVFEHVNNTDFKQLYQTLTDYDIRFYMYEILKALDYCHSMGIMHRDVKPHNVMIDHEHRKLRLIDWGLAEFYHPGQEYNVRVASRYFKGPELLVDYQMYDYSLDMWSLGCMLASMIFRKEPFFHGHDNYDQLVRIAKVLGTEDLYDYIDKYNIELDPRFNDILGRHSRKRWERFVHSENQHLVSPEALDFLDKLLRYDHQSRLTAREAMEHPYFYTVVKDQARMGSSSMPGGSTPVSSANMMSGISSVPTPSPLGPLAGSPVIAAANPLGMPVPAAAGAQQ", "assay": "KINOMEscan scanMAX", "type": "binding", "conditions": "2000 nM; read-out: Percent Control"}, "DCAMKL3 (DCLK3)": {"target": "DCAMKL3 (DCLK3) (Homo sapiens (Human), UniProt Q9C098)", "assay": "KINOMEscan scanMAX", "type": "binding", "conditions": "2000 nM; read-out: Percent Control"}, "EGFR(L747-T751del, Sins)": {"target": "EGFR(L747-T751del, Sins) (Homo sapiens (Human), UniProt P00533, DEL747-751/INS746S)", "sequence (P00533 other isoform, or with tags, fused parts or gaps del 1-668/ins S behind 746/del 747-751/del 1012-1210 limits assumed)": "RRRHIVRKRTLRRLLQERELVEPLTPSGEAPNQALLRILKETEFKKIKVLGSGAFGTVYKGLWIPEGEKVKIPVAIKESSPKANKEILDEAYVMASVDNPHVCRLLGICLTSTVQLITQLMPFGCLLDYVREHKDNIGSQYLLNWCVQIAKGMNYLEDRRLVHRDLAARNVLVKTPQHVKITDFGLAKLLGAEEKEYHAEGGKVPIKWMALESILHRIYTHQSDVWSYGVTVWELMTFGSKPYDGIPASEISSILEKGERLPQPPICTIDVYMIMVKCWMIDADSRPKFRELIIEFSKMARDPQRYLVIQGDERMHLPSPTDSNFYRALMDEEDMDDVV", "assay": "KINOMEscan scanMAX", "type": "binding", "conditions": "2000 nM; read-out: Percent Control"}, "FGFR3(G697C)": {"target": "FGFR3(G697C) (Homo sapiens (Human), UniProt P22607, G697C)", "assay": "KINOMEscan scanMAX", "type": "binding", "conditions": "2000 nM; read-out: Percent Control"}, "[4]": {"target": "GCN2(Kin.Dom.2, S808G) (EIF2AK4) (Homo sapiens (Human), UniProt Q9P2K8, S808G)", "assay": "KINOMEscan scanMAX", "type": "binding", "conditions": "2000 nM; read-out: Percent Control"}, "HIPK2": {"target": "HIPK2 (Homo sapiens (Human), UniProt Q9H2X6)", "assay": "KINOMEscan scanMAX", "type": "binding", "conditions": "2000 nM; read-out: Percent Control"}, "[5]": {"target": "JAK1(JH2domain-pseudokinase) (Homo sapiens (Human), UniProt P23458)", "assay": "KINOMEscan scanMAX", "type": "binding", "conditions": "2000 nM; read-out: Percent Control"}, "JNK1 (MAPK8)": {"target": "JNK1 (MAPK8) (Homo sapiens (Human), UniProt P45983)", "assay": "KINOMEscan scanMAX", "type": "binding", "conditions": "2000 nM; read-out: Percent Control"}, "KIT": {"target": "KIT (Homo sapiens (Human), UniProt P10721)", "sequence (P10721 26-976)": "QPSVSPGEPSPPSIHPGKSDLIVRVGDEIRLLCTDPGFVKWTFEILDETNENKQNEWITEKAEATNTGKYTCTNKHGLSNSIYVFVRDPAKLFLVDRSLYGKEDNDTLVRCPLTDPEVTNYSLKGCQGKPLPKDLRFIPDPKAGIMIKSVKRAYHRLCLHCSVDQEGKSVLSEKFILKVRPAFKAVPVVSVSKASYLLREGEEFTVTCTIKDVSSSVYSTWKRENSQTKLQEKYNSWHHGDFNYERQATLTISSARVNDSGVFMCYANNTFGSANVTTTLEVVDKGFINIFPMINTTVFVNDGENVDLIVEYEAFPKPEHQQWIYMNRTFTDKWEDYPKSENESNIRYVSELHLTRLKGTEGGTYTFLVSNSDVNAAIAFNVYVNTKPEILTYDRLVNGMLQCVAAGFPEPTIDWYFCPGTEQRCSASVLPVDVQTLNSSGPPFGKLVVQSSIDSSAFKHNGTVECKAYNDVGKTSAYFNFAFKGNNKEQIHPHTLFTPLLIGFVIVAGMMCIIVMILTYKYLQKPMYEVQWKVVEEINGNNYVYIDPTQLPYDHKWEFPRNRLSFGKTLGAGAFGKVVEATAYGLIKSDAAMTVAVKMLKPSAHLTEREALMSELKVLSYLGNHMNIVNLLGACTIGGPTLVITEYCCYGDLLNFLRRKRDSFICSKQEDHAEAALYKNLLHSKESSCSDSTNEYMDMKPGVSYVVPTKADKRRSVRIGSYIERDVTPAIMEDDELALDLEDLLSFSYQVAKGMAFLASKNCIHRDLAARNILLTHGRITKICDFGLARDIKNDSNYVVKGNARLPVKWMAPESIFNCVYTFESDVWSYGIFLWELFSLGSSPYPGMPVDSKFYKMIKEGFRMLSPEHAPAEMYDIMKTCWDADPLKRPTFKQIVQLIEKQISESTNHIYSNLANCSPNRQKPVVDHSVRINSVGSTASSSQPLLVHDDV", "assay": "KINOMEscan scanMAX", "type": "binding", "conditions": "2000 nM; read-out: Percent Control"}, "KIT(L576P)": {"target": "KIT(L576P) (Homo sapiens (Human), UniProt P10721, L576P)", "sequence (P10721 26-976 L576P)": "as the sequence (P10721 26-976) above, with L551P counted along it", "assay": "KINOMEscan scanMAX", "type": "binding", "conditions": "2000 nM; read-out: Percent Control"}, "LIMK2": {"target": "LIMK2 (Homo sapiens (Human), UniProt P53671)", "sequence (P53671 whole entry)": "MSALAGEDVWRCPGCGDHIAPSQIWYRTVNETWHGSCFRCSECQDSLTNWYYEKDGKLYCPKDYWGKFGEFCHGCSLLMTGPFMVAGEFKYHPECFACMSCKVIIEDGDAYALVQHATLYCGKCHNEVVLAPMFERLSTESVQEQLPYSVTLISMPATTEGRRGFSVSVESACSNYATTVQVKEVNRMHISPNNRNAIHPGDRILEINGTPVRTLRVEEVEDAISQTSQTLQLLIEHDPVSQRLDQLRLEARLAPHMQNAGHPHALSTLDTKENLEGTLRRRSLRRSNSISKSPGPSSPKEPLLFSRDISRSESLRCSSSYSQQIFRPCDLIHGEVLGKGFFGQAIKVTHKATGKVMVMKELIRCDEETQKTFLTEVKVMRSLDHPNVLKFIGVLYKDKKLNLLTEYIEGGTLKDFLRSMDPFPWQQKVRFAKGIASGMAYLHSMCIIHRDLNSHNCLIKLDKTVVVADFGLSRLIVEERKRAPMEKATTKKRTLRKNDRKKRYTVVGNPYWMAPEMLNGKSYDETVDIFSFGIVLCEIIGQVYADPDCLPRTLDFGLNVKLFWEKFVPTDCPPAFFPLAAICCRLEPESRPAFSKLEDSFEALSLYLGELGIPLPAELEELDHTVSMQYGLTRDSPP", "assay": "KINOMEscan scanMAX", "type": "binding", "conditions": "2000 nM; read-out: Percent Control"}, "LKB1 (STK11)": {"target": "LKB1 (STK11) (Homo sapiens (Human), UniProt Q15831)", "assay": "KINOMEscan scanMAX", "type": "binding", "conditions": "2000 nM; read-out: Percent Control"}, "MAP3K4": {"target": "MAP3K4 (Homo sapiens (Human), UniProt Q9Y6R4)", "sequence (Q9Y6R4 whole entry)": "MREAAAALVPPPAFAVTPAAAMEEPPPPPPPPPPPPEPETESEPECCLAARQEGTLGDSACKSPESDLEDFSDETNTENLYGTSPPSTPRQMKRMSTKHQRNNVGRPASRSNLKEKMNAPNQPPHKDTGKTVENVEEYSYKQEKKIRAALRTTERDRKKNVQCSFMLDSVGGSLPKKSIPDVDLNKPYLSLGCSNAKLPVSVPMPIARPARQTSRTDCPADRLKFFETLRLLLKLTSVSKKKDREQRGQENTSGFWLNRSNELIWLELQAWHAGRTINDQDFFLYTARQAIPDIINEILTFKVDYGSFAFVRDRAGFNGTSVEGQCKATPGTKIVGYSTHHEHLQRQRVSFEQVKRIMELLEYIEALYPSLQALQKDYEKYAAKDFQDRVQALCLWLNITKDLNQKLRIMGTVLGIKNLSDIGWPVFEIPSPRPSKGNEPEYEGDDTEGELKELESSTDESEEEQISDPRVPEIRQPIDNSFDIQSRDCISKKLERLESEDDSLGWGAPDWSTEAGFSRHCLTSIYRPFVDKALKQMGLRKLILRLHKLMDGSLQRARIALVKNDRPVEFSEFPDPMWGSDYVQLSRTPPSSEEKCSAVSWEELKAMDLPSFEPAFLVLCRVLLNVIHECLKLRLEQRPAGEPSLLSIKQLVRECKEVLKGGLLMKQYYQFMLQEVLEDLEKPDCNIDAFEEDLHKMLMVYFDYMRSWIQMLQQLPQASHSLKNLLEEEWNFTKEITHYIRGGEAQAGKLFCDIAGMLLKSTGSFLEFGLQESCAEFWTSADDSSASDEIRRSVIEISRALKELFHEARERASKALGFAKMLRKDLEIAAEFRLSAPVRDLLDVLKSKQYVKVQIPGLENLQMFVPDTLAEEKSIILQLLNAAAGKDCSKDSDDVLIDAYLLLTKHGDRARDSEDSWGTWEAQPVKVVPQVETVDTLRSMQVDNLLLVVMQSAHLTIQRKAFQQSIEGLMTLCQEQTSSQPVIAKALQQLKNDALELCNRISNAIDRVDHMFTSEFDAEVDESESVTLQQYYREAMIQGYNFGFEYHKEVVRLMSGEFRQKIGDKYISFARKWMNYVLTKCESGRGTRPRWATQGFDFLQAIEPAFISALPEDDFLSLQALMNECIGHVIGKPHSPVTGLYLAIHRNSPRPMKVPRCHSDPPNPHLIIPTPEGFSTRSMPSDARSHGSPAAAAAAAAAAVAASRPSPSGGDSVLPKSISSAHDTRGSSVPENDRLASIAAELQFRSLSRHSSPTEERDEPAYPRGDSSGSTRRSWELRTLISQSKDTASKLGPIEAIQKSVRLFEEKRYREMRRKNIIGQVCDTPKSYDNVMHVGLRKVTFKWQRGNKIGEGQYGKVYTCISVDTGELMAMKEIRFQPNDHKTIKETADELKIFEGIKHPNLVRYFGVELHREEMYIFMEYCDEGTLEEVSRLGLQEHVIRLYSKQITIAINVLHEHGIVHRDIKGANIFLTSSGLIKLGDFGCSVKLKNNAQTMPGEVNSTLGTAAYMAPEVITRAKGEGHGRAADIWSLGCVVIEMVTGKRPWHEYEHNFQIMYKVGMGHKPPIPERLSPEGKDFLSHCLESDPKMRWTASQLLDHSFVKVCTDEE", "assay": "KINOMEscan scanMAX", "type": "binding", "conditions": "2000 nM; read-out: Percent Control"}, "MARK4": {"target": "MARK4 (Homo sapiens (Human), UniProt Q96L34)", "assay": "KINOMEscan scanMAX", "type": "binding", "conditions": "2000 nM; read-out: Percent Control"}, "MST4": {"target": "MST4 (Homo sapiens (Human), UniProt Q9P289)", "assay": "KINOMEscan scanMAX", "type": "binding", "conditions": "2000 nM; read-out: Percent Control"}, "MYO3B": {"target": "MYO3B (Homo sapiens (Human), UniProt Q8WXR4)", "assay": "KINOMEscan scanMAX", "type": "binding", "conditions": "2000 nM; read-out: Percent Control"}, "NEK2": {"target": "NEK2 (Homo sapiens (Human), UniProt P51955)", "assay": "KINOMEscan scanMAX", "type": "binding", "conditions": "2000 nM; read-out: Percent Control"}, "PAK6": {"target": "PAK6 (Homo sapiens (Human), UniProt Q9NQU5)", "assay": "KINOMEscan scanMAX", "type": "binding", "conditions": "2000 nM; read-out: Percent Control"}, "PCTK1 (CDK16)": {"target": "PCTK1 (CDK16) (Homo sapiens (Human), UniProt Q00536)", "assay": "KINOMEscan scanMAX", "type": "binding", "conditions": "2000 nM; read-out: Percent Control"}, "RET(V804L)": {"target": "RET(V804L) (Homo sapiens (Human), UniProt P07949, V804L)", "sequence (P07949 29-1114 V804L)": "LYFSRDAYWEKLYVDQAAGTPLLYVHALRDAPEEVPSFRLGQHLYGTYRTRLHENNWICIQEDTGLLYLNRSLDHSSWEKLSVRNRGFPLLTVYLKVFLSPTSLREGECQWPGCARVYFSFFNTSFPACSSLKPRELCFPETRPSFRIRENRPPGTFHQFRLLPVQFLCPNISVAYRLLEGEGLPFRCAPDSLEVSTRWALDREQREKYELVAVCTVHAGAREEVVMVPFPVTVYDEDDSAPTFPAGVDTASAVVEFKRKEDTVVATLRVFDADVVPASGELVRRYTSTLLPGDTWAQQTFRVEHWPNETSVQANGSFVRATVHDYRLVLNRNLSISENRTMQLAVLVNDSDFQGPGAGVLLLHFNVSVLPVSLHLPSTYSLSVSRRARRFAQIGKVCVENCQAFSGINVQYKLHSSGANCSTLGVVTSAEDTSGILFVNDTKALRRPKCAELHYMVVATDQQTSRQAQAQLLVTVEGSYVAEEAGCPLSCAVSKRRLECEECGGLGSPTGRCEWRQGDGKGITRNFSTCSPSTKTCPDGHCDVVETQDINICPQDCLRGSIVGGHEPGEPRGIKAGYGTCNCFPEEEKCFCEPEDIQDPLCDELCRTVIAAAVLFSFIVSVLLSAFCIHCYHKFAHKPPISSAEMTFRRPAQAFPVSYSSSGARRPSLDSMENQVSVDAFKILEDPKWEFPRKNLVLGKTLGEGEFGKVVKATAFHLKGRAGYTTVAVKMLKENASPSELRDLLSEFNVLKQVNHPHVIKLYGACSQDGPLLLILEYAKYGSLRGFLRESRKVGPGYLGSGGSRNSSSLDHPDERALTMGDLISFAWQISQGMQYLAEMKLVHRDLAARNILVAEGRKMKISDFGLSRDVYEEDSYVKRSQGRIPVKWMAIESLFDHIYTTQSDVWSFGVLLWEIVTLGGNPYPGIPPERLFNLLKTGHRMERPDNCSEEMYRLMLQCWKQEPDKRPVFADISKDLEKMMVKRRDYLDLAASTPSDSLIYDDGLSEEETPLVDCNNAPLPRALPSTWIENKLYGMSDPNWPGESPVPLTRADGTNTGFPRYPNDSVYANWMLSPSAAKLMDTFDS", "assay": "KINOMEscan scanMAX", "type": "binding", "conditions": "2000 nM; read-out: Percent Control"}, "[6]": {"target": "RSK1(Kin.Dom.2-C-terminal) (RPS6KA1) (Homo sapiens (Human), UniProt Q15418)", "assay": "KINOMEscan scanMAX", "type": "binding", "conditions": "2000 nM; read-out: Percent Control"}, "[7]": {"target": "RSK2(Kin.Dom.2-C-terminal) (RPS6KA3) (Homo sapiens (Human), UniProt P51812)", "assay": "KINOMEscan scanMAX", "type": "binding", "conditions": "2000 nM; read-out: Percent Control"}, "SIK (SIK1)": {"target": "SIK (SIK1) (Homo sapiens (Human), UniProt P57059)", "assay": "KINOMEscan scanMAX", "type": "binding", "conditions": "2000 nM; read-out: Percent Control"}, "TIE2 (TEK)": {"target": "TIE2 (TEK) (Homo sapiens (Human), UniProt Q02763)", "assay": "KINOMEscan scanMAX", "type": "binding", "conditions": "2000 nM; read-out: Percent Control"}, "VPS34 (PIK3C3)": {"target": "VPS34 (PIK3C3) (Homo sapiens (Human), UniProt Q8NEB9)", "assay": "KINOMEscan scanMAX", "type": "binding", "conditions": "2000 nM; read-out: Percent Control"}, "C4-2 xenografts": {"test_system": "C4-2 xenografts", "assay": "PSA mRNA in C4-2 xenografts in mice", "type": "in vivo", "conditions": "40 mg/kg orally daily for 4 days, male NcrNU mice", "description": "CDK8/19 inhibition decreases the expression of certain androgen-receptor (AR) inducible genes including PSA, the most common marker of prostate cancer, and the growth of castration-refractory prostate cancers (CRPC). The in vivo effects of Senexin C on PSA expression by C4-2 cells were analyzed after treatment of male NcrNU mice bearing C4-2 xenografts (grouped based on tumor sizes) for 4 days at 40 mg/kg administered orally daily."}, "MV4-11 cells": {"test_system": "MV4-11 cells", "assay": "MV4-11-Luc proliferation assay (BLI)", "type": "cell-based", "conditions": "Homo sapiens, MV4-11, 168 h; 7 days", "description": "The anti-leukemic activity was evaluated with a MV4-11 assay. The population of MV4-11 cells, which depend on CDK8/19 for their proliferation, was made to express Luciferase and ZsGreen by lenvtiral infection with pHIV-Luc-ZsGreen, to enable leukemia growth analysis by bioluminescence imaging (BLI). The initial Luciferase-ZsGreen transduced cell population was sorted for ZsGreen positivity with fluorescence activated cell sorting. The MV4-11 assay was performed in 96-well plates by treating the MV4-11-Luc cells with testing compounds at different concentrations for 7 days, followed by BLI to quantify the effects of test articles on cell proliferation."}}, "data": [{"compound": "CN1CCN(C(=O)c2ccc3cc(CCNc4ccnc5ccc(C#N)cc45)ccc3c2)CC1", "note": "[compound 6148, 4-((2-(6-(4-methylpiperazine-1-carbonyl)naphthalen-2-yl)ethyl)amino)quinoline-6-carbonitrile]", "values": [{"measurement": "remaining binding at 2 µM", "setting": "[1]", "result": 89, "unit": "%"}, {"measurement": "remaining binding at 2 µM", "setting": "[2]", "result": 76, "unit": "%"}, {"measurement": "remaining binding at 2 µM", "setting": "[3]", "result": 74, "unit": "%"}, {"measurement": "remaining binding at 2 µM", "setting": "ANKK1", "result": 69, "unit": "%"}, {"measurement": "remaining binding at 2 µM", "setting": "CDK4-cyclinD3", "result": 80, "unit": "%"}, {"measurement": "remaining binding at 2 µM", "setting": "CLK3", "result": 65, "unit": "%"}, {"measurement": "remaining binding at 2 µM", "setting": "CSNK2A1", "result": 56, "unit": "%"}, {"measurement": "remaining binding at 2 µM", "setting": "DCAMKL3 (DCLK3)", "result": 96, "unit": "%"}, {"measurement": "remaining binding at 2 µM", "setting": "EGFR(L747-T751del, Sins)", "result": 74, "unit": "%"}, {"measurement": "remaining binding at 2 µM", "setting": "FGFR3(G697C)", "result": 93, "unit": "%"}, {"measurement": "remaining binding at 2 µM", "setting": "[4]", "result": 93, "unit": "%"}, {"measurement": "remaining binding at 2 µM", "setting": "HIPK2", "result": 67, "unit": "%"}, {"measurement": "remaining binding at 2 µM", "setting": "[5]", "result": 58, "unit": "%"}, {"measurement": "remaining binding at 2 µM", "setting": "JNK1 (MAPK8)", "result": 54, "unit": "%"}, {"measurement": "remaining binding at 2 µM", "setting": "KIT", "result": 95, "unit": "%"}, {"measurement": "remaining binding at 2 µM", "setting": "KIT(L576P)", "result": 100, "unit": "%"}, {"measurement": "remaining binding at 2 µM", "setting": "LIMK2", "result": 93, "unit": "%"}, {"measurement": "remaining binding at 2 µM", "setting": "LKB1 (STK11)", "result": 87, "unit": "%"}, {"measurement": "remaining binding at 2 µM", "setting": "MAP3K4", "result": 81, "unit": "%"}, {"measurement": "remaining binding at 2 µM", "setting": "MARK4", "result": 78, "unit": "%"}, {"measurement": "remaining binding at 2 µM", "setting": "MST4", "result": 68, "unit": "%"}, {"measurement": "remaining binding at 2 µM", "setting": "MYO3B", "result": 31, "unit": "%"}, {"measurement": "remaining binding at 2 µM", "setting": "NEK2", "result": 100, "unit": "%"}, {"measurement": "remaining binding at 2 µM", "setting": "PAK6", "result": 90, "unit": "%"}, {"measurement": "remaining binding at 2 µM", "setting": "PCTK1 (CDK16)", "result": 68, "unit": "%"}, {"measurement": "remaining binding at 2 µM", "setting": "RET(V804L)", "result": 88, "unit": "%"}, {"measurement": "remaining binding at 2 µM", "setting": "[6]", "result": 97, "unit": "%"}, {"measurement": "remaining binding at 2 µM", "setting": "[7]", "result": 65, "unit": "%"}, {"measurement": "remaining binding at 2 µM", "setting": "SIK (SIK1)", "result": 91, "unit": "%"}, {"measurement": "remaining binding at 2 µM", "setting": "TIE2 (TEK)", "result": 89, "unit": "%"}, {"measurement": "remaining binding at 2 µM", "setting": "VPS34 (PIK3C3)", "result": 68, "unit": "%"}, {"measurement": "PSA mRNA levels in the tumor", "setting": "C4-2 xenografts", "result": "strongly decreased"}, {"measurement": "IC50", "setting": "MV4-11 cells", "result": 117, "unit": "nM"}]}]}
